Source: patent US20070265164A1, “Active Substances for Increasing Pathogenic Defense in Plants and Methods for the Detection Thereof” (Bayer Cropscience GmbH, priority 2004, published 2007)

Legend:
[1] = tested on: Contig2337_at, 12-oxophytodienoate reductase (OPR1); experiment: GEP, barley DNA chip, probe set 1.20; assay type: in vivo; parameters: fold induction: dose or concentration left out as unconfirmed; settings: for fold induction / fold induction at 150 g/ha: Hordeum vulgare, topical, read-out: Expression value, 1.20 Contig2337_at; for fold induction: rates of Table 1 (S7 500); for fold induction at 150 g/ha: 6 h
Protocol: (§1) Barley plants (cv. Baronesse) were grown in compost-filled pots (diameter: 10 cm) for 10 days in a controlled-environment cabinet under defined light, humidity and temperature conditions (white light, 70% atmospheric humidity, 24° C.). At the time of spray application, the seedlings were approximately 15 cm in size. The test substances selected in this example were molecules which differ markedly in their structure and which have a well documented pronounced safener effect, and other molecules which are known from the literature to have an effect on plant stress and pathogen tolerance (Table 1). The substances were prepared as stock solutions in DMSO (dimethyl sulfoxide) at c=10 mg/ml). This was used for preparing dilutions in water supplemented with 0.2% Agrotin (comprises polyvinyl alcohol, silicones, polysaccharides and pH regulators, manufacturer: Bayer CropScience AG, Monheim, Germany), as wetter, to give the application rates shown in the table. The amount of liquid for the spray application was 800 μl per pot, corresponding to 800 l/ha. For each 800 μl of spray mixture, 16 μl of EC premix: diacetone alcohol=1:6 were additionally added as formulation auxiliaries. The substances listed in Table 1 were applied to the leaves by means of a pneumatic spray pistol. Each substance was sprayed as 2 dosages, and all experiments were carried out as replicates (2 pots per substance). Sprayings with blank formulation without active ingredient were carried out as controls. After 6 hours, the leaves were harvested, frozen in liquid nitrogen and stored at −80° C. until further use. The labeled RNA probes for the DNA chip hybridization were prepared as described in the protocols (Expression Analysis, Technical Manual) from Affymetrix (Affymetrix Inc., 3380 Central Expressway, Santa Clara, Calif., USA). First, total RNA was isolated from in each case 500 mg of the harvested leaves. In each case 10 μg of total RNA was used for the first-strand and second-strand cDNA synthesis. The cDNA was amplified with T7 polymerase and simultaneously labeled with biotin-UTP. In each case, 20 μg of this biotinylated cDNA was employed for the hybridization of the barley genome array (Gene Chip Barleyl, order No.: 511012) from Affymetrix. This DNA microarray comprises DNA sequences of 22 840 genes which are composed of a total of 400 000 EST sequences. Thereafter, the DNA microarrays were washed in the Affymetrix Fluidics Station, stained with streptavidin/phycoerythrin (Molecular Probes, P/N S-866) and scanned with the matching Agilent Laser Scanner (Agilent Gene Array Scanner). The fluorescent data obtained were analyzed with the software Microarray Suite 5 from Affymetrix. After the quality had been checked, all DNA chip analyses were stored in a database. To determine the relative expression values for genes (induction factors, repression factors), test and control chips were compared with each other, and the scoring function set by the Affymetrix software was used as the basis. The 2 biological replications of one experiment were compared in each case with 2 control chips (blank formulation), and the 4 expression values obtained for each gene were used for calculating the median. These medians are shown in the results tables as induction factors. Similarity comparisons of expression profiles from different experiments and cluster analyses were carried out using the software GeneMaths 1.5 from Applied Maths (Applied Maths, Keistraat 120, 9830 Sint-Martens-Latem, Belgium).
(§2) Gene groups from specific metabolic pathways and signal transduction chains were put together by key word search in the annotations, of the genes, which were also provided by Affymetrix, and by Blast analyses (homology comparisons) of the DNA target sequences, i.e. of the positive sequence (identified on the basis of a modified expression profile) identified on the DNA chip, using gene sequences from other organisms, preferably plant organisms, with characterized functions. […]

[2] = tested on: Contig2330_x_at, 12-oxophytodienoic acid reductase; experiment: GEP, barley DNA chip, probe set 1.19; assay type: in vivo; parameters: fold induction: dose or concentration left out as unconfirmed; settings: for fold induction / fold induction at 150 g/ha: Hordeum vulgare, topical, read-out: Expression value, 1.19 Contig2330_x_at; for fold induction: rates of Table 1 (S7 500); for fold induction at 150 g/ha: 6 h
Protocol: as §1, §2

[3] = tested on: Contig5369_at, Pathogen-related protein; experiment: GEP, barley DNA chip, probe set 4.2; assay type: in vivo; parameters: fold induction: dose or concentration left out as unconfirmed; settings: for fold induction / fold induction at 150 g/ha: Hordeum vulgare, topical, read-out: Expression value, 4.2 Contig5369_at; for fold induction: rates of Table 1 (S7 500); for fold induction at 150 g/ha: 6 h
Protocol: as §1, §2

[4] = tested on: HV_Ceb0020D05r2_s_at, Allene oxide cyclase; experiment: GEP, barley DNA chip, probe set 1.6; assay type: in vivo; parameters: fold induction: dose or concentration left out as unconfirmed; settings: Hordeum vulgare, topical, read-out: Expression value, 1.6 HV_Ceb0020 D05r2_s_at; for fold induction: barley leaves 6 h after spray application, rates of Table 1 (S7 500), median induction factor vs control; for fold induction at 150 g/ha: 6 h
Protocol: as §1, §2

[5] = tested on: Contig 4986_at, Allene oxide cyclase; experiment: GEP, barley DNA chip, probe set 1.5; assay type: in vivo; parameters: fold induction: dose or concentration left out as unconfirmed; settings: for fold induction / fold induction at 150 g/ha: Hordeum vulgare, topical, read-out: Expression value, 1.5 Contig 4986_at; for fold induction: rates of Table 1 (S7 500); for fold induction at 150 g/ha: 6 h
Protocol: as §1, §2

[6] = tested on: Contig1737_at, Probable lipoxygenase; experiment: GEP, barley DNA chip, probe set 1.15; assay type: in vivo; parameters: fold induction: dose or concentration left out as unconfirmed; settings: for fold induction / fold induction at 150 g/ha: Hordeum vulgare, topical, read-out: Expression value, 1.15 Contig1737_at; for fold induction: rates of Table 1 (S7 500); for fold induction at 150 g/ha: 6 h
Protocol: as §1, §2

[7] = tested on: jasmonic acid biosynthesis; experiment: GEP, induction pattern of the jasmonic acid biosynthesis genes; assay type: in vivo, barley; settings: compared with the other safeners and resistance inductors
Protocol: Barley plants (cv. Baronesse) were grown in compost-filled pots (diameter: 10 cm) for 10 days in a controlled-environment cabinet under defined light, humidity and temperature conditions (white light, 70% atmospheric humidity, 24° C.). At the time of spray application, the seedlings were approximately 15 cm in size. The test substances selected in this example were molecules which differ markedly in their structure and which have a well documented pronounced safener effect, and other molecules which are known from the literature to have an effect on plant stress and pathogen tolerance (Table 1). The substances were prepared as stock solutions in DMSO (dimethyl sulfoxide) at c=10 mg/ml). This was used for preparing dilutions in water supplemented with 0.2% Agrotin (comprises polyvinyl alcohol, silicones, polysaccharides and pH regulators, manufacturer: Bayer CropScience AG, Monheim, Germany), as wetter, to give the application rates shown in the table. The amount of liquid for the spray application was 800 μl per pot, corresponding to 800 l/ha. For each 800 μl of spray mixture, 16 μl of EC premix: diacetone alcohol=1:6 were additionally added as formulation auxiliaries. The substances listed in Table 1 were applied to the leaves by means of a pneumatic spray pistol. […] The fluorescent data obtained were analyzed with the software Microarray Suite 5 from Affymetrix. […]

[8] = tested on: Jasmonate (JA); experiment: Jasmonate (JA) concentration in leaves of treated plants, GC-MS/MS; assay type: in vivo, barley; settings: 0 hours
[9] = barley leaves 6 h after spray application, median induction factor vs control
[10] = barley leaves 6 h after spray application, rates of Table 1 (150 g a.i./ha, S7 500), median induction factor vs control

| SMILES | fold induction [1, 9] | fold induction [2, 9] | fold induction [3, 9] | fold induction [4] | fold induction [5, 9] | fold induction [6, 9] | further results |
| --- | --- | --- | --- | --- | --- | --- | --- |
| NC(=O)c1ccc(C(F)(F)F)nc1O [S6] | 1 | 2.55 | 1 | 1 | 1 | 1 | – |
| COC(=O)C1=NN(c2ccc(Cl)cc2Cl)C(C)(C(=O)OC)C1 (centres unmarked) [S1, Mefenpyr-dimethyl] | 4.89 | 4.03 | 2.35 | 1 | 1 | 1 | – |
| CCOC(=O)C(Oc1ccc(Cl)c2cccnc12)C(=O)OCC [S5] | 1 | 1 | 1 | 1 | 1 | 1 | – |
| CCCCCC(C)OC(=O)COc1ccc(Cl)c2cccnc12 (centres unmarked) [S4, Cloquintocet-mexyl] | 1 | 2.83 | 1 | 1 | 1 | 1 | – |
| O=C(O)c1cc(Cl)cc(Cl)c1O [S10] | 1 | 1 | 1 | 1 | 1 | 1 | – |
| O=C(O)C1=NN(c2ccc(Cl)cc2Cl)C(c2ccc(F)cc2)C1 (centres unmarked) [S2] | 1 | 2.39 | 1 | 1 | 1 | 1 | – |
| O=C(NO)c1ccccc1O [S7, Salicyl hydroxamate] | – | – | – | – | – | – | Expression value, 1.20 Contig2337_at [1, 10]: 1.00 x times; Expression value, 1.19 Contig2330_x_at [2, 10]: 1.00 x times; Expression value, 4.2 Contig5369_at [3, 10]: 1.00 x times; Expression value, 1.5 Contig 4986_at [5, 10]: 1.00 x times; Expression value, 1.15 Contig1737_at [6, 10]: 1.00 x times |
| CCOC(=O)C1=NOC(c2ccccc2)(c2ccccc2)C1 [S3, Isoxadifen-ethyl] | – | – | – | – | – | – | fold induction at 150 g/ha [1]: 1; fold induction at 150 g/ha [2]: 1; Effect on jasmonic acid biosynthesis (induction pattern) [7]: most pronounced; fold induction at 150 g/ha [3]: 4.76; fold induction at 150 g/ha [4]: 3.68; fold induction at 150 g/ha [5]: 3.76; fold induction at 150 g/ha [6]: 1; Jasmonate (JA) concentration ([8]; 30 g a.i/ha): 140 pmol/g leaf tissue; Jasmonate (JA) concentration ([8]; 150 g a.i./ha): 140 pmol/g leaf tissue |
| O=C(O)c1cc(Cl)nc(Cl)c1 [S9] | – | – | – | – | – | – | fold induction at 150 g/ha [1]: 1; fold induction at 150 g/ha [2]: 1; fold induction at 150 g/ha [3]: 1; fold induction at 150 g/ha [4]: 1; fold induction at 150 g/ha [5]: 1; fold induction at 150 g/ha [6]: 1 |
| CSC(=O)c1cccc2nnsc12 [S8, Acibenzolar-S-methyl] | 1 | 1 | 1 | 1 | 1 | 1 | – |
